Data on 25 compounds can be found in US20250320189A1, “NEW DERIVATIVES FOR TREATING TRPM3 MEDIATED DISORDERS” (Katholieke Universiteit Leuven, priority 2022, published 2025).

This assay deals with T1, mouse TRPM3α2 (mTRPM3) ion channel (Mus musculus, UniProt J9SQF3).
T1 construct: expressed in transfected cells; host or cells: flip-in (Flp-In) HEK293
The assay is described as follows: Monitoring the TRPM3 ion channel driven Ca2+ uptake (Fluo-4 AM assay). It counts as cell-based. Particulars: mTRPM3alpha2 overexpressing flip-in HEK293 cells, stimulated with Pregnenolone sulfate (PS) 50 μM. How it is done: In order to monitor the inhibition of the mouse TRPM3α2 (mTRPM3) ion channel by the compounds of the invention, a cellular system making use of an mTRPM3alpha2 or hTRPM3 overexpressing cell line (flip-in HEK293) was used. The TRPM3 channel was stimulated/opened with Pregnenolone sulfate (PS) (50 μM) which results in Ca^2+ influx.
For mTRPM3, the intracellular Ca^2+ was measured with a Calcium responsive dye, Fluor-4 AMV ester (Invitrogen). Cells were cultured until a confluence of 80-90%, washed with Versene (Invitrogen) and detached from the surface by a short incubation with 0.05% Trypsin (Invitrogen). The trypsination process was stopped by the addition of complete cell culture medium (DMEM, glutamax, 10% FCS, NEAA,Pen-Strep). Cells were collected and resuspended in Krebs buffer without Calcium at RT.
Prior the cell seeding (±2000 cells/well into a black, 384 well plate (Greiner)) the diluted compound was added in the assay plate, together with the PS dissolved in Krebs buffer containing Calcium. […] Directly after cell addition the plates were read on an Envision fluorescence reader (PerkinElmer) by an Excitation of 485 nm and emission at 535 nm.
Channel inhibition was calculated compared to a non-PS stimulated control versus a condition stimulated with PS (50 μM) with vehicle. The ability of the compounds of the invention to inhibit this activity was determined as: Percentage inhibition=[1−((RFU determined for sample with test compound present−RFU determined for sample with positive control inhibitor) divided by (RFU determined in the presence of vehicle−RFU determined for sample with positive control inhibitor))]*100.
The activities of the Example compounds tested are depicted in the table below. The activity ranges A, B and C refer to IC50 values in the Fluo-4 AM assay as follows: “A”: IC50<1 μM; “B”: 1 μM≤IC50≤20 μM and “C”: IC50>20 μM

T1 sequence (J9SQF3 1-1709 isoform J9SQF3-12): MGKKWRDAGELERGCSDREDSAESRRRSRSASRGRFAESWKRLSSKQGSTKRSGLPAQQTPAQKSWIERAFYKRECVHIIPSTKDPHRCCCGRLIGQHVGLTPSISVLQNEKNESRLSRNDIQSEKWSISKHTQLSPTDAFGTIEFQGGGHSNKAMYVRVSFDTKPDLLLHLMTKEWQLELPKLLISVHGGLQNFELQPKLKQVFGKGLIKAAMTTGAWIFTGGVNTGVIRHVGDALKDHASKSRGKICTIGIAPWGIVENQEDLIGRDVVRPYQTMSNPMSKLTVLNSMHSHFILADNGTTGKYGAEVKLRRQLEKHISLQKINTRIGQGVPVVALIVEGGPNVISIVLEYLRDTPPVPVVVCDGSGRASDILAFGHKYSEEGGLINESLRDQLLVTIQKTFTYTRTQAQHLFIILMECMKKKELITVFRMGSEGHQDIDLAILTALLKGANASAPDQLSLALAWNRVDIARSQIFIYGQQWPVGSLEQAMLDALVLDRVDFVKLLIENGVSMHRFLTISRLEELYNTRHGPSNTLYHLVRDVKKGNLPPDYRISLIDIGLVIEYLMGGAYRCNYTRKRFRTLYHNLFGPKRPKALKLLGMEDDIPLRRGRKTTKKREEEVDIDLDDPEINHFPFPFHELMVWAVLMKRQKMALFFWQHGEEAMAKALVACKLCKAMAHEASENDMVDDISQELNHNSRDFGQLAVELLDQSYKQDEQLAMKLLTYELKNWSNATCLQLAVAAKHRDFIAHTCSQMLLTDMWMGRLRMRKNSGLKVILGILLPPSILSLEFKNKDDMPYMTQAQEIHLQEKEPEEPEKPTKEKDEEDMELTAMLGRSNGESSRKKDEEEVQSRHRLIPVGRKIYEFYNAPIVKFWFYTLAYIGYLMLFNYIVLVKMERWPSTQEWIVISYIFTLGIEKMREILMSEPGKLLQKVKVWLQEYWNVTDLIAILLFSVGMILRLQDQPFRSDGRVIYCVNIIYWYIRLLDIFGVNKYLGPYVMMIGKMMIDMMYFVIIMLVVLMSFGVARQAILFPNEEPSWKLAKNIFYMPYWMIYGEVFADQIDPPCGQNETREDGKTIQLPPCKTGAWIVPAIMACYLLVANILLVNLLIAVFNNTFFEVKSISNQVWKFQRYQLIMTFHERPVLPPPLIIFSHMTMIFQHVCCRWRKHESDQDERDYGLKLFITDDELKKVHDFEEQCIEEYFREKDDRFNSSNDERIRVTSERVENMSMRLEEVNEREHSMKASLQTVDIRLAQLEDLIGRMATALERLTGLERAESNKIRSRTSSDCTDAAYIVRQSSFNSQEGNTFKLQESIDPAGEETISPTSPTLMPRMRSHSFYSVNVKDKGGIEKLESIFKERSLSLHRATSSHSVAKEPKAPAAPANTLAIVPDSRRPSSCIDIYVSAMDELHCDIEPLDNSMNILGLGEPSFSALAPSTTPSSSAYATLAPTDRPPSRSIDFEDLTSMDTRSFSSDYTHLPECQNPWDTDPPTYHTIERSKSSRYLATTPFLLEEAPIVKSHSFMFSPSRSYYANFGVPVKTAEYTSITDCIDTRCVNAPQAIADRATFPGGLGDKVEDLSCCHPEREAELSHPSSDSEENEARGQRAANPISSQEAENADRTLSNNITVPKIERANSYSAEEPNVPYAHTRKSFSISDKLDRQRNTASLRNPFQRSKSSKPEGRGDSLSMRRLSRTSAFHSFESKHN

What is called IC50 is the concentration that gives 50% inhibition. A lower IC50 goes with inhibition by little substance. Compound `Cc1oc2ccc(OCC3CC3)cc2c1C(=O)NC1(CO)CC1` [Cpd 026, 5-(cyclopropylmethoxy)-N-[1-(hydroxymethyl)cyclopropyl]-2-methyl-1-benzofuran-3-carboxamide] registered an IC50 of 1 to 20 µM. Turning to `Cc1oc2ccc(OCC(F)F)cc2c1C(=O)NC1(C(N)=O)CCOC1` (single isomer, unassigned) [Cpd 044 - En2, N-(3-carbamoyloxolan-3-yl)-5-(2,2-difluoroethoxy)-2-methyl-1-benzofuran-3-carboxamide], the IC50 was < 1 µM. The result for `Cc1oc2ccc(OCC3CC3(C)C)cc2c1C(=O)NC(C)(CO)C(N)=O` (single isomer, unassigned) [Cpd 049 - En3, 2-({5-[(2,2-dimethylcyclopropyl)methoxy]-2-methyl-1-benzofuran-3-yl}formamido)-3-hydroxy-2-methylpropanamide] reads < 1 µM; that for `Cc1oc2ccc(OCC34CC(C)(C3)C4)cc2c1C(=O)NC(C)(CO)C(N)=O` (single isomer, unassigned) [Cpd 052 - En2, 3-hydroxy-2-methyl-2-{[2-methyl-5-({3-methylbicyclo[1.1.1]pentan-1-yl}methoxy)-1-benzofuran-3-yl]formamido}propenamide], < 1 µM. The result for `Cc1oc2ccc(OCC3CC3)cc2c1C(=O)N[C@H](CO)C(N)=O` [Cpd 009, (2R)-2-{[5-(cyclopropylmethoxy)-2-methyl-1-benzofuran-3-yl]formamido}-3-hydroxypropanamide] reads < 1 µM.

Consider `Cc1oc2ccc(OCC3CCC3)cc2c1C(=O)NC(C)(CO)CO` [Cpd 018, 5-(cyclobutylmethoxy)-N-(1,3-dihydroxy-2-methylpropan-2-yl)-2-methyl-1-benzofuran-3-carboxamide], for which the IC50 was < 1 µM. Turning to `Cc1oc2ccc(OCC3CC3(F)F)cc2c1C(=O)NC(CO)CC(F)(F)F` (single isomer, unassigned) [Cpd 057 - En3, 5-[(2,2-difluorocyclopropyl)methoxy]-2-methyl-N-(4,4,4-trifluoro-1-hydroxybutan-2-yl)-1-benzofuran-3-carboxamide], the IC50 is 1 to 20 µM.

Regarding `Cc1oc2ccc(OC[C@H]3C[C@H](C)C3)cc2c1C(=O)NC(C)(CO)C(N)=O` (single isomer, unassigned) [Cpd 059 - En1, Trans-3-hydroxy-2-methyl-2-({2-methyl-5-[(3-methylcyclobutyl)methoxy]-1-benzofuran-3-yl}formamido)propenamide], the IC50 was < 1 µM. As for `Cc1oc2cc(F)c(OCC3CC3)cc2c1C(=O)NC(C)(CO)C(N)=O` (single isomer, unassigned) [Cpd 045 - En1, 2-{[5-(cyclopropylmethoxy)-6-fluoro-2-methyl-1-benzofuran-3-yl]formamido}-3-hydroxy-2-methylpropanamide], the IC50 is < 1 µM. The figure for `Cc1oc2ccc(OCC3CC3)cc2c1C(=O)NC1(C(N)=O)COC1` [Cpd 034, N-(3-carbamoyloxetan-3-yl)-5-(cyclopropylmethoxy)-2-methyl-1-benzofuran-3-carboxamide] is < 1 µM; for `Cc1oc2ccc(OCC3CC3)cc2c1C(=O)NC1CCCNC1=O` (single isomer, unassigned) [Cpd 055 - En1, 5-(cyclopropylmethoxy)-2-methyl-N-(2-oxopiperidin-3-yl)-1-benzofuran-3-carboxamide] it is < 1 µM. The figure for `NC(=O)[C@H](CO)NC(=O)c1c(C(F)F)oc2ccc(OCC3CC3)cc12` [Cpd 008, (2S)-2-{[5-(cyclopropylmethoxy)-2-(difluoromethyl)-1-benzofuran-3-yl]formamido}-3-hydroxypropanamide] is < 1 µM; for `Cc1oc2ccc(OCC3CC3)cc2c1C(=O)NC1CCN(C)CC1` [Cpd 021, 5-(cyclopropylmethoxy)-2-methyl-N-(1-methylpiperidin-4-yl)-1-benzofuran-3-carboxamide] it is 1 to 20 µM. The figure for `Cc1oc2ccc(OCC3CCC3)cc2c1C(=O)NC(C)(CO)C(N)=O` (single isomer, unassigned) [Cpd 053 - En1, 2-{[5-(cyclobutylmethoxy)-2-methyl-1-benzofuran-3-yl]formamido}-3-hydroxy-2-methylpropanamide] is < 1 µM; for `Cc1oc2ccc(OCC3CC3)cc2c1C(=O)NC1(CO)CCCNC1=O` (single isomer, unassigned) [Cpd 027 - En2, 5-(cyclopropylmethoxy)-N-[3-(hydroxymethyl)-2-oxopiperidin-3-yl]-2-methyl-1-benzofuran-3-carboxamide] it is 1 to 20 µM; for `Cc1oc2ccc(OCC3CC3)cc2c1C(=O)NC1(C(N)=O)CCOC1` (single isomer, unassigned) [Cpd 035 - En2, N-(3-carbamoyloxolan-3-yl)-5-(cyclopropylmethoxy)-2-methyl-1-benzofuran-3-carboxamide] it is < 1 µM. For `Cc1oc2ccc(OCC(C)(C)C)cc2c1C(=O)N[C@@H](CO)C(N)=O` [Cpd 039, (2S)-2-{[5-(2,2-dimethylpropoxy)-2-methyl-1-benzofuran-3-yl]formamido}-3-hydroxypropanamide], the IC50 was < 1 µM.

As for `Cc1oc2ccc(OCC3CC3(C)C)cc2c1C(=O)NC(C)(CO)C(N)=O` (single isomer, unassigned) [Cpd 049 - En4, 2-({5-[(2,2-dimethylcyclopropyl)methoxy]-2-methyl-1-benzofuran-3-yl}formamido)-3-hydroxy-2-methylpropanamide], the IC50 is < 1 µM.

In the case of `Cc1oc2ccc(OCC3CC3)cc2c1C(=O)N[C@@H](C)C(N)=O` [Cpd 010, (2S)-2-{[5-(cyclopropylmethoxy)-2-methyl-1-benzofuran-3-yl]formamido}propanamide], the IC50 is < 1 µM. The figure for `Cc1oc2ccc(OCC3CC3(C)C)cc2c1C(=O)NC(C)(CO)C(N)=O` (single isomer, unassigned) [Cpd 049 - En1, 2-({5-[(2,2-dimethylcyclopropyl)methoxy]-2-methyl-1-benzofuran-3-yl}formamido)-3-hydroxy-2-methylpropanamide] is < 1 µM; for `Cc1oc2ccc(OCC3CCC3)cc2c1C(=O)NC1CCNCC1(F)F` (single isomer, unassigned) [Cpd 019 - En1, 5-(cyclobutylmethoxy)-N-(3,3-difluoropiperidin-4-yl)-2-methyl-1-benzofuran-3-carboxamide] it is 1 to 20 µM. The result for `Cc1oc2ccc(OCC3CCC3)cc2c1C(=O)NC(C)(CO)C(N)=O` (single isomer, unassigned) [Cpd 053 - En2, 2-{[5-(cyclobutylmethoxy)-2-methyl-1-benzofuran-3-yl]formamido}-3-hydroxy-2-methylpropanamide] reads < 1 µM; that for `Cc1oc2ccc(OCC3(C(F)(F)F)CC3)cc2c1C(=O)NC1(C)CCCNC1=O` (single isomer, unassigned) [Cpd 061 - En1, 2-methyl-N-(3-methyl-2-oxopiperidin-3-yl)-5-{[1-(trifluoromethyl)cyclopropyl]methoxy}-1-benzofuran-3-carboxamide], > 20 µM. The figure for `Cc1oc2ccc(OCC3CC3(F)F)cc2c1C(=O)N[C@@H](CO)C(N)=O` (single isomer, unassigned) [Cpd 002 - En1] is < 1 µM; for `Cc1oc2ccc(OCC(F)F)cc2c1C(=O)NC1(C(N)=O)CCOC1` (single isomer, unassigned) [Cpd 044 - En1, N-(3-carbamoyloxolan-3-yl)-5-(2,2-difluoroethoxy)-2-methyl-1-benzofuran-3-carboxamide] it is 1 to 20 µM.
